For orientation: Km means the substrate concentration at which the rate is half of its maximum.

These results are taken from patent US8148117B2, “Microorganism and process for the preparation of L-methionine” (Evonik Degussa GmbH, priority 2005, dated 2012).

Read-outs that look alike come from different tables or passages of the source.

Data set [1] has as its target MetC (Salmonella typhimurium, UniProt P18949). Particulars: read-out: MetC Km; S. thyphimurium MetC; Dwivedi et al. 1982; cited from earlier work.
Data set [2] has as its target MetC (Escherichia coli, UniProt P06721). The following applies: Dwivedi et al. 1982, cited from earlier work.
Data set [3] has as its target T1, MetC (Corynebacterium glutamicum, UniProt Q93QC6).
T1 construct: His-Tag (N); made in house; host or cells: Escherichia coli
T1 sequence (Q93QC6 1-368): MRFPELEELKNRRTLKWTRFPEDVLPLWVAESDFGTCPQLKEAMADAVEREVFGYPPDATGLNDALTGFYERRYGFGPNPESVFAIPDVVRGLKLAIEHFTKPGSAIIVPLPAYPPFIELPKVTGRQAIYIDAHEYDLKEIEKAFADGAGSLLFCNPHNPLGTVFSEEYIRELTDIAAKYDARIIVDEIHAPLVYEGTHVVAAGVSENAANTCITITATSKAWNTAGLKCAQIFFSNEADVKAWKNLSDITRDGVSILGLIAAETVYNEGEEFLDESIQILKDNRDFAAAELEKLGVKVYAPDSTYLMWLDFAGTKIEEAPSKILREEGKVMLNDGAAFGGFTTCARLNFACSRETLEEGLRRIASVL
In kind it is biochemical. Particulars: for Cleavage by MetC: MetC added to MetB assay products after MetB removal, HPLC and photometric SH-group assay. As to the method: (§1) Overexpression and purification of enzymes. MetB and MetC of C. glutamicum were cloned in the vector pQE30 (Qiagen). Expression with this vector comprises the addition of a His-Tag to the N-terminus of the expressed protein. Escherichia coli was transformed with the plasmid and selected by ampicillin resistance (100 μg/mL). Transformed E. coli was cultivated (100 μg/mL ampicillin, 37° C., 230 rpm) on terrific broth (Losen et al., Biotechnol Prog 2004, 204, 1062-8) and induced at an optical density of 1 (600 nm) by addition of 1 mM isopropyl thiogalactoside (final concentration). The cells were harvested by centrifugation (4225 g, 15 min, 2° C.) after 16 h of induced growth, washed and resuspended in phosphate buffer (100 mM, 100 μM pyridoxal phosphate, 1 mg/mL DNAse 1, pH 7.4 at 4° C.) and extracted by sonication (5×15 sec, 20 micron). The crude extracts were separated from cell debris by centrifugation (30 min, 2° C., and 20000 g). […] After the protein was applied to the column, it was washed with 10 vol. of 0.02 M sodium phosphate buffer. Elution was carried out with a linear gradient with 0.02 M sodium phosphate buffer (pH 7.4) containing 0.5 M NaCl and 0.5 M imidazol. The fractions containing the protein were checked for purity with SDS-PAGE and then pooled together. Imidazole was separated from the proteins by ultrafiltration.
In vitro assays of MetB and MetC. Activity of MetB and MetC was followed photometrically (Helios α, Thermo Electronic, Dreieich, Germany). Enzyme activities were measured by increase or decrease of free SH-groups using Ellman's reagent (Extinction at 412 nm) (Ellman and Lysko, 1979). The assay mixtures contained 1.25 mM cysteine or homocysteine and 3 mM O-acetyl homoserine for MetB-assays and 1.25 mM cystathionine or about 1.25 mM homolanthionine for MetC-assays. Homolanthionine was not commercially available. The MetC-assay was therefore carried out using the products of the MetB-assay. MetB was removed by ultrafiltration. Thus, the homolanthionine concentration could not be adjusted in the assays. […]

For data set [4], the target named is MetC (Bordetella avium, UniProt Q07703). The following applies: read-out: MetC Km; B. avium MetC; Gentry-Weeks et al. 1993; cited from earlier work.
Sequence of MetC (Bordetella avium, UniProt Q07703) (Q07703 whole entry): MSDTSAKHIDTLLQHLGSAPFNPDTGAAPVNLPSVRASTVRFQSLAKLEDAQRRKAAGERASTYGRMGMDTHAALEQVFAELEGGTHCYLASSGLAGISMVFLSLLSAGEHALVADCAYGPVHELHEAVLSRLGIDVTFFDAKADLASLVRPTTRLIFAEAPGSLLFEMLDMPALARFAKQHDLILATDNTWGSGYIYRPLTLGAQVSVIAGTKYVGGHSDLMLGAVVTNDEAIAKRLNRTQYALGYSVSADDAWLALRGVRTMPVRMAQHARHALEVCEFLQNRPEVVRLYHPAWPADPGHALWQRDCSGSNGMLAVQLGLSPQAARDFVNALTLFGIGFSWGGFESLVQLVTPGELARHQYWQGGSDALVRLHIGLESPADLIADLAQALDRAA
Data set [5] concerns MetB. Particulars: read-out: MetB Km; Spinach MetB; Ravanel et al. 1995; cited from earlier work.
Data set [6] addresses T2, MetB (Corynebacterium glutamicum, UniProt Q79VD9).
T2 sequence (Q79VD9 1-386): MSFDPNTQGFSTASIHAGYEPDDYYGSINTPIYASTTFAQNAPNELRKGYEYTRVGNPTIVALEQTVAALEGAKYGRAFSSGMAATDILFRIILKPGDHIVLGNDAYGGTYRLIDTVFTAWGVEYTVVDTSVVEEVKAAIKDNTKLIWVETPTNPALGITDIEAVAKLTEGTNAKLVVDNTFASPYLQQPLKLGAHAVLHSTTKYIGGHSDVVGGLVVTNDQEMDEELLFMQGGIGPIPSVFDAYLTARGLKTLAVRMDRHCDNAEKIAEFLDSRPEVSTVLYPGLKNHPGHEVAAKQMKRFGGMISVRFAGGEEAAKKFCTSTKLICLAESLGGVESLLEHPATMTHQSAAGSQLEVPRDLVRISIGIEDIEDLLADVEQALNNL
The experiment in a line: In vitro assay of MetB, Km from Lineweaver-Burk plots. Format: biochemical. Particulars: C. glutamicum MetB, with O-acetyl homoserine, this study. As to the method:
as §1, with “The fractions containing the protein were checked for purity with SDS-PAGE and then pooled together. Imidazole was separated from the proteins by ultrafiltration.” left out
In vitro assays of MetB and MetC. […] Enzyme activities were measured by increase or decrease of free SH-groups using Ellman's reagent (Extinction at 412 nm) (Ellman and Lysko, 1979). […]

Data set [7] addresses MetB (Escherichia coli, UniProt P00935). Particulars: E. coli MetB; Holbrook et al. 1990; cited from earlier work.
Substrate in data set [8]: N[C@@H](CCS)C(=O)O
The experiment in a line: purified protein, by the assay type. The following applies: other: C. glutamicum MetB, with O-acetyl homoserine, this study; 37.0 °C.

Sequence of MetC (Escherichia coli, UniProt P06721) (P06721 2-395): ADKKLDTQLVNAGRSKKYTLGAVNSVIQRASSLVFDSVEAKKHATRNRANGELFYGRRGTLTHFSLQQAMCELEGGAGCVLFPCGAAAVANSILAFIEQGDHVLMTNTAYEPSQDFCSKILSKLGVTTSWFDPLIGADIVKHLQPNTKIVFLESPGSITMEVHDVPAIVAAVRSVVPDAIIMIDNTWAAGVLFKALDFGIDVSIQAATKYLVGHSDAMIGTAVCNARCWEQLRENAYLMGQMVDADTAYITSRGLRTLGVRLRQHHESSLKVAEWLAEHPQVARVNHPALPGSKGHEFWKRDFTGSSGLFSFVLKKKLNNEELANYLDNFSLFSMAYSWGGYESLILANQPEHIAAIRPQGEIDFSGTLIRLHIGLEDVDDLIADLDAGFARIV
Sequence of MetC (Salmonella typhimurium, UniProt P18949) (P18949 whole entry): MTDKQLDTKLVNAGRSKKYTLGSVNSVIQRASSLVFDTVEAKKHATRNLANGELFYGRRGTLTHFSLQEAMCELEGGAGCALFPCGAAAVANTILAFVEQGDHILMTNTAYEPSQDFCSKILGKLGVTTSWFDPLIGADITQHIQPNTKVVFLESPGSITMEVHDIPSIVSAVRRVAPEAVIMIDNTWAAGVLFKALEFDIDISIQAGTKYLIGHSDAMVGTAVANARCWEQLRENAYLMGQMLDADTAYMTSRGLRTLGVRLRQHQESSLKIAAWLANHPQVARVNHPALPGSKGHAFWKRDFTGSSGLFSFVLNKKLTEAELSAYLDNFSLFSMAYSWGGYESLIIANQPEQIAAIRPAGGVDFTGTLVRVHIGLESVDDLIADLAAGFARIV
Sequence of MetB (Escherichia coli, UniProt P00935) (P00935 whole entry): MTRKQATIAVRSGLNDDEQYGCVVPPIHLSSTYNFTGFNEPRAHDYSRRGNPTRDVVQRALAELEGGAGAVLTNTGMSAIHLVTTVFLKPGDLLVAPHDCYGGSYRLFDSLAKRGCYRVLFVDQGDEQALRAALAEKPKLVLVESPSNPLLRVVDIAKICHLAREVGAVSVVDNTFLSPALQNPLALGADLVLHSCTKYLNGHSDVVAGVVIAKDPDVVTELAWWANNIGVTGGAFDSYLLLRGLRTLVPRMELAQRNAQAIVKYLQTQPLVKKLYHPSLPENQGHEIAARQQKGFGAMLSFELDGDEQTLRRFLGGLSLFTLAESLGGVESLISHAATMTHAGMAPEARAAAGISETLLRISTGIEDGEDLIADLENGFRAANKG

Consider `N[C@@H](CCSC[C@H](N)C(=O)O)C(=O)O` [L-cystathionine], for which the Km on MetC [1] was 220 µM; on MetC [2] (E. coli MetC) it was 0.04 mM; at MetC [3] (C. glutamicum MetC, this study), 107 µM; at MetC [4], 70 µM. Besides, at MetC [3], the “Cleavage by MetC” value is on record as “complete cleavage”.

In the case of `N[C@@H](CS)C(=O)O` [L-cysteine], the Km with MetB [5] was 180 µM; on MetB [6], 258 µM; at MetB [7], 50 µM.

As to `N[C@@H](CCSCC[C@H](N)C(=O)O)C(=O)O` [L-homolanthionine, S-[(3S)-3-amino-3-carboxypropyl]-L-homocysteine], the Km was 4.54 mM on MetC [2] (E. coli MetC) and 4.5 mM on MetC [2] (E. coli cystathionase). Besides, the “Cleavage by MetC” value at MetC [3] was “only poorly cleaved”.

B1: MetB (Corynebacterium glutamicum ATCC 13032) (protein)
chain: T2 sequence (Q79VD9 1-386)
With B1, in data set [8], the Km was 541 µM.
